One data set deals with T1, DPP-IV (Homo sapiens, UniProt P27487).
T1 construct: purchased Calbiochem 317630
The settings on record: example 10 of PCT/CN2008/001936; cited from earlier work.

In another data set the target is T2, DPP-IX (Homo sapiens, UniProt Q86TI2).
T2 construct: purchased Bioscience 80090
Put plainly: DPP-IX inhibition, Promega DPPIV-Glo Protease Assay. The format is biochemical. The settings on record: read-out: IC50 DPP9. The method, then: (§1) The compounds of the present invention were tested to determine their DPP-IV, DPP-VIII, DPP-IX inhibition activity according to the following methods. The half inhibition concentrations IC50 (the concentration of the test compound showing 50% inhibition to the enzyme activity) of each compound were determined by reaction test and calculation of the mixture of fixed amounts of enzyme and substrate with several different concentrations of the test compounds.
(§2) The compounds of the present invention were tested to determine the DPP-IV, DPP-VIII, DPP-IX inhibition activity in the following tests using Promega DPPIV-Glo™ Protease Assay (Cat No. G8350/G8351) Kit, wherein:
c. DPP-IX enzyme bought from Bioscience, Catalog no. 80090.
(§3) The preparation procedure of the conventional reagent such as DPPIV-Glo buffer, luciferin reagents needed in the test and the detail operation of the test can refer to the specifications of the kits. The assay was carried out as following steps:
(§4) The tested compounds were dissolved in DMSO to prepare a series of different concentrations of the test compound solution. DPPIV-Glo buffer and the freezing luciferin detection reagent were equilibrated to room temperature. The luciferin detection reagent was dissolved in moderate buffer in a brown flask to form a solution. Then DPP-IV-Glo. was dissolved in ultrapure water to give the appropriate concentration. The substrate solution and the luciferin detection reagent solution were mixed sufficiently in an appropriate ratio (the ratio of the invention is 1:49), and the mixture was layed at room temperature for 30-60 minutes. Tris buffer (2 mM, pH 8.0), the test compounds and DPP-IV (DPP-VIII or DPP-IX) were mixed and then transferred to a 96-well plate. Each test contains double-well of three-well control. The same volume of DMSO was added to the negative control and blank control. Then the 96-well plate was added with mixed solution of luciferin detection reagent and substrate to initiate the reaction. The 96-wells plate was incubated at room temperature on a plate shaker for 40 minutes after sealed. The strength of the fluorescent signal in each well was determined by microplate reader and the inhibition rate to the enzyme of the compound at this concentration was calculated by the formula as following: inhibitory rate: IR=[1−(S−B)/(N−B)]*100% • S: value of the sample • B: value of the blank control • N: value of the negative control
(§5) IC50 of the test compounds can be calculated by the inhibition rate at different concentration.

A short description of data set [1]: Pharmacokinetics assay in rats (LC/MS/MS plasma concentration). The format is in vivo, SD rats. An excerpt: The compound of Example 3 was administrated intragastrically or tail vein injection to rats and the compounds of Example 1-4, Example 9 and Example 11-12 were administrated intragastrically to determine the drug concentration in plasma at different time points by LC/MS/MS measurement. The pharmacokinetics of the compounds of the present invention was studied and evaluated in rats. And the oral absolute bioavailability was investigated.
Compounds of Example 1-4, Example 9 and Example 11-12.
[…] healthy adult SD rats, male and female in half, were purchased from SINO-BRITSH SIPPR/BK LAB.ANIMAL LTD., CO, License number: SCXK (Shanghai) 2008-0016.
Vein injection group: the proper weighed test compound was dissolved in 0.5 mL of DMSO by ultrasound and then diluted with normal saline to 15 mL to form a 0.3 mg/mL solution.
Intragastrically administered group: the proper weighed test compound was dissolved in 0.5% CMC-Na by ultrasound to form a 0.3 mg/mL of suspension.
32 healthy adult SD rats, male and female in half, were divided into 8 groups so that each group consisted 4 rats. After an overnight fast, the rats were tail vein injected of the compound of Example 3 and intragastrically administered the compound of Example 3 and the salt thereof, at a dose of 3.0 mg/kg (calculated as the free base form) and a volume of 10 mL/kg.
Blood samples (0.2 mL) of the rats in vein injection group were taken from eye socket at pre administration and at 2, 15, 30 minutes and 1.0, 2.0, 4.0, 6.0, 8.0, 12.0, 24.0 hours post administration, which were stored in heparinized tubes and centrifuged for 10 minutes at 3,500 rpm. The plasma samples were stored at −20° C. until analysis. The rats were fed 2 hours after administration.
Blood samples of the rats in intragastrically administered group were taken at pre administration and at 0.5, 1.0, 2.0, 3.0, 4.0, 6.0, 8.0, 12.0, 24.0 hours post administration. The samples were treated with the same method as mentioned above.
50 μL of internal standard solution and 150 μL of methanol were added to 50 μL of rat plasma obtained at various time points after administration. Then the mixture was mixed for 3 minutes using a vortexer and centrifuged for 10 minutes at 13,500 rpm. 10 μL of the supernatant was analyzed by LC/MS/MS.
The compartmental model of pharmacokinetics was fitted for the test compounds and the major pharmacokinetic parameters were calculated by DAS 2.0 software in which Cmax and tmax were the actually measured values. The absolute bioavailability was calculated by AUC0-t taken from post administration and vein injection.

Data set [2] is described as follows: Solubility experiment in four systems. The format is physicochemical. The method, then: According to the conventional solubility measurement, the solubility of the test samples were determined in four different systems: phosphate buffer solution (PBS, pH=7.4), methanol, 0.1% hydrochloric acid and water.
A further data set concerns the target T3, DPP-VIII (Homo sapiens, UniProt Q6V1X1).
T3 construct: purchased Bioscience 80080
Put plainly: DPP-VIII inhibition, Promega DPPIV-Glo Protease Assay. The format is biochemical. The settings on record: read-out: IC50 DPP8. The procedure: as §1, §2
b. DPP-VIII enzyme bought from Bioscience, Catalog no. 80080;
as §3, §4, §5

A further data set concerns normal ICR mice. Kind of data set: Hypoglycemic effect, oral glucose tolerance in normal ICR mice. The settings on record: 10 mg/kg by gavage, glucose 4 g/kg 15 minutes after administration. The format is in vivo. The procedure:
To observe the effects on oral glucose tolerance of the compounds of Example 1-4 and Example 8-12 in normal ICR mice (SINO-BRITSH SIPPR/BK LAB.ANIMAL LTD., CO), the hypoglycemic effects in vivo have been evaluated using blood-glucose meter to measure and analyze the sugar content of the samples at different time points during 2 hours. The samples were taken from the mouse's tail.
The administration dose was 10 mg/kg, and the blank was administered with water. Both groups contained 5% DMSO.
The mice were administered by gavage. 4 g/kg of 10% glucose solution was administered (0.8 mL to each mice) 15 minutes after administration.
The mice were administered according to above dose (the blank group was administrated with 5% DMSO aqueous solution) and the blood sugar value was measured (−15 minutes).
15 minutes after administration, the mice were administered of 4 g/kg of 20% glucose solution and the values of blood sugar were tested by Roche ACCU-CHEK at 0, 15, 30, 45, 60, 120 minutes.

Like-named read-outs stand apart in the source and are kept apart here.

For orientation: IC50 means the concentration at which inhibition is half-maximal. One may read the half-life as the time needed for the level to fall by half in the phase considered. High values mean slow decline, low ones rapid decline. For orientation: Cmax means the maximum level reached in the sampled fluid or tissue. By MRT is commonly meant a mean duration of stay, worked out from the concentration-time curve. By Tmax is commonly meant the time from dosing to the highest level. By solubility is commonly meant the dissolved amount per volume that the medium holds.

T1 sequence (P27487 whole entry): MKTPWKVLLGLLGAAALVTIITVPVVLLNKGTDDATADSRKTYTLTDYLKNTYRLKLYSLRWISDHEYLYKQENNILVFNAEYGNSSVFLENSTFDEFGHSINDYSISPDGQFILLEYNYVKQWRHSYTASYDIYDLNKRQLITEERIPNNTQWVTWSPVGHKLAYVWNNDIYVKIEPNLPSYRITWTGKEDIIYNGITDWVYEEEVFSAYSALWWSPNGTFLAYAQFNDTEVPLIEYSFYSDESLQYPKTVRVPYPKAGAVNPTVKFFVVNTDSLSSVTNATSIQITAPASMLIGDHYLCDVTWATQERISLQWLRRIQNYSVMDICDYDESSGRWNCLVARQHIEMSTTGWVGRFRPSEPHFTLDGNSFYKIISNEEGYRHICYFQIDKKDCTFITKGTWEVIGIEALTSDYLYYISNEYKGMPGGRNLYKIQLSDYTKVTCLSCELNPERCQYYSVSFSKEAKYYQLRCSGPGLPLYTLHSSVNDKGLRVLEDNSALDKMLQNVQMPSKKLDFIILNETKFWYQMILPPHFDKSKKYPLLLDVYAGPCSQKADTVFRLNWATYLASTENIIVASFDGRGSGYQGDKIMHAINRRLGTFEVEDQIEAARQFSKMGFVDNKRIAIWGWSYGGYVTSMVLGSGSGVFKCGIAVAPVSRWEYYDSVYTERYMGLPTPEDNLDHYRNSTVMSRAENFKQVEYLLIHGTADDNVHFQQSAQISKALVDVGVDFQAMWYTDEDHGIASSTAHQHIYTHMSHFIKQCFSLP
T3 sequence (Q6V1X1 whole entry): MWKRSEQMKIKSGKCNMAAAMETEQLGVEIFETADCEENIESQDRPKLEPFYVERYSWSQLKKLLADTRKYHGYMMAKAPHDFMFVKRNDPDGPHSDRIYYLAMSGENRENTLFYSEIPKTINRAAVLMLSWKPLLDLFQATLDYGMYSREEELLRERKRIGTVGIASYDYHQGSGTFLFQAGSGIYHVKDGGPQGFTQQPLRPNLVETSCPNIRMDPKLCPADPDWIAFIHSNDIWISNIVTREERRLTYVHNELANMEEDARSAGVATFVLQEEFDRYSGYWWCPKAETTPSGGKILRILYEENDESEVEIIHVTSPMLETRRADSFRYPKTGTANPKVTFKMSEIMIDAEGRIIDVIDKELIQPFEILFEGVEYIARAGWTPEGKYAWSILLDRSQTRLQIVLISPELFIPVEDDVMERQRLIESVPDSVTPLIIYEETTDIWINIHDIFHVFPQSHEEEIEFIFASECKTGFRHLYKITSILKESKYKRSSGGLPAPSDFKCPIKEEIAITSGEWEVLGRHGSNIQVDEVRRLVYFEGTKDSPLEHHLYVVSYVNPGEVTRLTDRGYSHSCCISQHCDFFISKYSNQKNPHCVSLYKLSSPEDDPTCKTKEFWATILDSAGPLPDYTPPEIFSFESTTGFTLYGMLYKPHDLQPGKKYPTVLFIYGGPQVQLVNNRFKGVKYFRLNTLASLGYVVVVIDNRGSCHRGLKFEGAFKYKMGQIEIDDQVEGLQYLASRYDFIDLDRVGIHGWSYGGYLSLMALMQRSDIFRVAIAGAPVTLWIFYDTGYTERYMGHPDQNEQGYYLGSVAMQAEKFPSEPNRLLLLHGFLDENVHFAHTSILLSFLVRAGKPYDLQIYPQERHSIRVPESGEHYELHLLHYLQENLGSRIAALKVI
T2 sequence (Q86TI2 whole entry): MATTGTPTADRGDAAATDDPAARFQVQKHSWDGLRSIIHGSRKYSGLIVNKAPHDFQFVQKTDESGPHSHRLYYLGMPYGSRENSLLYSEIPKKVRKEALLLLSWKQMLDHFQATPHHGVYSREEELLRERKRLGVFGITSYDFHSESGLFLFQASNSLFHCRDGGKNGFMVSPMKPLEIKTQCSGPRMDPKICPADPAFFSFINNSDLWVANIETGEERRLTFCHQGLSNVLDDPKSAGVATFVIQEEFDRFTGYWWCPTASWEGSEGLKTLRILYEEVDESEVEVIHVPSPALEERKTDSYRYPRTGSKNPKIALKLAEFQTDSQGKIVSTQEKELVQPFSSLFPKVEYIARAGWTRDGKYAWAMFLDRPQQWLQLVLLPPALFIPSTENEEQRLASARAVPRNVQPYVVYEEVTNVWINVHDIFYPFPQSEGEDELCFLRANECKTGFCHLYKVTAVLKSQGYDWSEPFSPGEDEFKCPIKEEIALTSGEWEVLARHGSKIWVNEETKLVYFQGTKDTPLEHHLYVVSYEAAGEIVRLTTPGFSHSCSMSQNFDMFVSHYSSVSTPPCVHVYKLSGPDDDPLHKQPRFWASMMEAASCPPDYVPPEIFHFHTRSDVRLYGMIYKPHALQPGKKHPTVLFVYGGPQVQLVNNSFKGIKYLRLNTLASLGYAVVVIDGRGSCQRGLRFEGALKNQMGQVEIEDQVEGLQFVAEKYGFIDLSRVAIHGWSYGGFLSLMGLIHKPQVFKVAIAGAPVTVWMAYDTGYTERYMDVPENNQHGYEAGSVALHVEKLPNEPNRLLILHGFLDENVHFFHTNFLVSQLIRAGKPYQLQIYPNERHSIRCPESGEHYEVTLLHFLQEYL

On to `Cl.N[C@@H](CC(=O)N1CCn2c(C(F)(F)F)nc(C(=O)O)c2C1)Cc1cc(F)c(F)cc1F` [Example 1, (R)-7-[3-Amino-4-(2,4,5-trifluorophenyl)-butanoyl]-3-trifluoromethyl-5,6,7,8-tetrahydro-imidazo[1,5-a]pyrazine-1-carboxylic acid hydrochloride], for which the “inhibition activity against DPP-IV (in words)” value at DPP-IV is reported as “excellent inhibition activity”. Besides, the results for the IC50 on DPP-IX and on DPP-VIII were 63.6 µM and 87.9 µM, respectively. In data set [1] (both sexes, SD, rat, plasma, po, 3 mg/kg, intragastric 3.0 mg/kg), this compound had a half-life of 1.74 ± 0.16 h. The AUC(0-t) in data set [1] (both sexes, SD, rat, plasma, po, 3 mg/kg, intragastric 3.0 mg/kg, read-out: AUC0-t) came to 66.6 ± 19.5 ng·h/mL. Further, the CL/F in data set [1] (both sexes, SD, rat, plasma, po, 3 mg/kg, intragastric 3.0 mg/kg, read-out: CL/F (converted)) was 760 mL/min/kg. The peak concentration (Cmax) in data set [1] (both sexes, SD, rat, plasma, po, 3 mg/kg, intragastric 3.0 mg/kg, read-out: Cmax) amounted to 18 ± 7.5 ng/mL. Further, the MRT in data set [1] (both sexes, SD, rat, plasma, po, 3 mg/kg, intragastric 3.0 mg/kg, read-out: MRT) stood at 3.17 ± 0.36 h. Besides, the Tmax in data set [1] (both sexes, SD, rat, plasma, po, 3 mg/kg, intragastric 3.0 mg/kg, read-out: Tmax) came out at 2.5 ± 1 h. Moreover, in data set [1] (both sexes, SD, rat, plasma, po, 3 mg/kg, intragastric 3.0 mg/kg, read-out: Vz/F), the Vd/F worked out at 114 ± 27 L/kg. Moreover, the F in data set [1] (intragastric 3.0 mg/kg (as free base), absolute bioavailability from AUC0-t vs vein injection) turned out to be 2.90%. Moreover, the solubility in data set [2] (0.1% hydrochloric acid, simulated gastric fluid, 0.1% hydrochloric acid, read-out: Solubility Value, 0.1% HCl) was 17.2 mg/mL; in data set [2] (methanol, organic solvent or mixture, methanol, read-out: Solubility Value, methanol), 31.3 mg/mL; in data set [2] (phosphate buffer solution (PBS), pH 7.4, aqueous buffer, PBS pH 7.4, read-out: Solubility Value, PBS (pH 7.4)) it was 18.6 mg/mL; in data set [2] (water, read-out: Solubility Value, water), 20.9 mg/mL. The “Hypoglycemic rate of blood sugar of 30 minutes after administration” value in the data set on normal ICR mice turned out to be 16.06%.

The record behind these values is patent publication US8518946B2, “Salts of (R)-7-[3-amino-4-(2,4,5-trifluorophenyl)butanoyl]-3-trifluoromethyl-5,6,7,8-tetrahydroimidazo[1,5-a] pyrazine-1-carboxylic acid, preparation method and medical use thereof” (Jiangsu Hengrui Medicine Co., Ltd., priority 2009, dated 2013).
